Consider 27 compounds from patent US8916565B2, “Pyrrolopyrazine-spirocyclic piperidine amides as modulators of ion channels” (priority 2011, dated 2014).

In this assay the target is human NaV subtype, like NaV 1.7 (Homo sapiens, UniProt Q15858). In words: E-VIPR optical membrane potential assay with electrical stimulation. In kind it is cell-based. The settings on record: active against one or more sodium channels; Table 3 does not name the assay or NaV subtype; read-out: Binned Activity Data (IC50).
human NaV subtype, like NaV 1.7, sequence (Q15858 whole entry): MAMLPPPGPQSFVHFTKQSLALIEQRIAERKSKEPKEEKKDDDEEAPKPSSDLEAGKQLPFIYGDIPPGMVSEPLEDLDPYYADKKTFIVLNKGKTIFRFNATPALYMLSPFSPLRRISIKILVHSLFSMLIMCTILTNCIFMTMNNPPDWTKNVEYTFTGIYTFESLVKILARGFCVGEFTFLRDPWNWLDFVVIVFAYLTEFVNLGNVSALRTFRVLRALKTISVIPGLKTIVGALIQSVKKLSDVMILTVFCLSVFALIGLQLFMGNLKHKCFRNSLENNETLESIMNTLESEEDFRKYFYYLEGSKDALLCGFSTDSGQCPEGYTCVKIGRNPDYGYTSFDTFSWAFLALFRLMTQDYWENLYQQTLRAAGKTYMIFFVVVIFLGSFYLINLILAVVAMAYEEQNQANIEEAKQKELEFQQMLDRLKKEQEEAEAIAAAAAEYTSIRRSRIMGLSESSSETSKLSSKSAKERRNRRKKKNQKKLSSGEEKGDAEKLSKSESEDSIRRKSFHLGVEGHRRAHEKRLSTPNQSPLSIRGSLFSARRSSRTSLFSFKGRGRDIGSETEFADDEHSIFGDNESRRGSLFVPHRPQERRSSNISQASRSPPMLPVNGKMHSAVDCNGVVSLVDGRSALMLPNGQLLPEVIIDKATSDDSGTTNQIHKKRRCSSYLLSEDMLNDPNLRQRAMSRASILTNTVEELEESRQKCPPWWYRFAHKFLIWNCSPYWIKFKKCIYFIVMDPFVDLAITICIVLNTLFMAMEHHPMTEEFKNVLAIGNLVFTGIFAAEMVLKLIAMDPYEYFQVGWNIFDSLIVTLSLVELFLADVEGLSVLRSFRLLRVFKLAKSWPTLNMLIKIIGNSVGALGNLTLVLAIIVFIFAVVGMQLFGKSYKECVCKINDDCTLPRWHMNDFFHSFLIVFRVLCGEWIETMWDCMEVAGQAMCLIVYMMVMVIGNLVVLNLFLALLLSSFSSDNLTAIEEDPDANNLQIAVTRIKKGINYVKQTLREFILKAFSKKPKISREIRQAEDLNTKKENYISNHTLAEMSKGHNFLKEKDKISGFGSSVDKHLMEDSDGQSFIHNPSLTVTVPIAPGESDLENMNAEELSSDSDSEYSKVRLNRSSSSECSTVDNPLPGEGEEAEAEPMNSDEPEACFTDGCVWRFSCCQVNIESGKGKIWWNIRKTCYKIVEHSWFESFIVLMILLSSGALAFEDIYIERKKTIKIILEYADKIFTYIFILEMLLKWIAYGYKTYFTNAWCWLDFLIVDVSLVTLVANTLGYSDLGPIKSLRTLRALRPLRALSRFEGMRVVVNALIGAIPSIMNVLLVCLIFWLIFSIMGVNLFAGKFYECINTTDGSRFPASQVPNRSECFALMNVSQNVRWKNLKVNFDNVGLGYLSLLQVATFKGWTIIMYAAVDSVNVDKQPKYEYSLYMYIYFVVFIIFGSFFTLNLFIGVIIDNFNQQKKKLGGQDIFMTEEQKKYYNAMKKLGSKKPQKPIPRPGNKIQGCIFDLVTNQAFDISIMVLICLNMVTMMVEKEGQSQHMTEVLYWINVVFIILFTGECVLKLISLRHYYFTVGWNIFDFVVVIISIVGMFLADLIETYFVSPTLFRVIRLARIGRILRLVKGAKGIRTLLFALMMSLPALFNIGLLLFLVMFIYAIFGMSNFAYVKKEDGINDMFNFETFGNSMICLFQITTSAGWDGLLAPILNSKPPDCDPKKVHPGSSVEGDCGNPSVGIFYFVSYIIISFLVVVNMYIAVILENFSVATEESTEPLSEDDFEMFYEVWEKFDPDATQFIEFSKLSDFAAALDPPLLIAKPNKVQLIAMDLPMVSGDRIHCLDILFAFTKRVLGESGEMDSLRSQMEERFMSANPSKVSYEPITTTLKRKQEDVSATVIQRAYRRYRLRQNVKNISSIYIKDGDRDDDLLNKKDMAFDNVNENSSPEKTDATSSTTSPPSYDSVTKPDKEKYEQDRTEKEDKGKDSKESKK

pIC50: −log10 of the molar value.

A word on the pIC50: it is −log10 of the IC50, conventionally taken in molar units.

Regarding `CC1CCN(S(=O)(=O)c2ccc(C(=O)N3CCC4(CC3)c3ccc(C(=O)C(F)(F)F)n3CCN4C)cc2)CC1` [Compound 600], the pIC50 was at least 5.70.
Next, `Cc1cc(C(=O)N2CCC3(CC2)c2ccc(C(=O)C(C)(C)C)n2CCN3C)ccc1O` [Compound 601]: at least 5.70.
Next, `CC(C)Oc1ccc(C(=O)N2CCC3(CC2)c2c(Cl)cc(C(F)(F)F)n2CCN3C)c(F)c1` [Compound 602]: at least 5.70.
Next, `O=C(c1ccccc1-c1ccccc1)N1CCC2(CC1)NCCn1c(C(F)(F)F)ccc12` [Compound 603]: below 5.30; `CC(=O)c1ccc2n1CCN(C)C21CCN(C(=O)c2ccc(OCc3ccccc3)cc2)CC1` [Compound 604]: at least 5.70.
For the compound `COc1ncc(F)cc1C(=O)N1CCC2(CC1)c1ccc(C(F)(F)F)n1CCN2C` [Compound 605], the pIC50 was below 5.30.
Turning to `CCCOc1cc(C(=O)N2CCC3(CC2)c2ccc(C(C)=O)n2CCN3C)ccc1OC` [Compound 606], the pIC50 is below 5.30.
For `CCC(=O)c1ccc2n1CCN(C)C21CCN(C(=O)c2ccc(OC(C)C)c(OC)c2)CC1` [Compound 607] the value was 5.30 to 5.70; for `COc1ccc(C(=O)N2CCC3(CC2)c2ccc(C(=O)C(F)(F)F)n2C[C@H](C)N3C)cc1Cl` [Compound 608], at least 5.70; for `CC[C@H](C)Oc1ccc(C(=O)N2CCC3(CC2)c2ccc(C(C)=O)n2CCN3C)cc1OC` [Compound 609], 5.30 to 5.70.
Next, `CC(=O)c1ccc2n1CC(C)(C)NC21CCN(C(=O)c2ccc(OC(C)C)c(C(F)(F)F)c2)CC1` [Compound 610]: at least 5.70; `CC(C)CCOc1ccc(C(=O)N2CCC3(CC2)NCC(C)n2c(C(=O)C(F)(F)F)ccc23)nc1` (stereo not drawn) [Compound 611]: at least 5.70; `COc1ccc(C(=O)N2CCC3(CC2)NC(C)(C)Cn2c(C(=O)C(F)(F)F)ccc23)cc1C` [Compound 612]: at least 5.70.
For `COc1ccc(C(=O)N2CCC3(CC2)NC(C)(C)Cn2c(C(C)=O)ccc23)cc1C` [Compound 613] the value was below 5.30.
Take `COc1cc(C(=O)N2CC[C@@]3(C[C@@H]2C)c2ccc(C(F)(F)F)n2CCN3C)ccc1OC(C)C` [Compound 614]: the pIC50 is below 5.30.
Consider `COCC#Cc1ccc(C(=O)N2CCC3(CC2)c2ccc(C(C)=O)n2CCN3C)cc1F` [Compound 615], for which the pIC50 was below 5.30.
Next, `CN1CCn2c(C(F)(F)F)cc(F)c2C12CCN(C(=O)c1ccc(C(C)(C)O)c(F)c1)CC2` [Compound 616]: at least 5.70; `CC(C)Oc1ccc(C(=O)N2CCC3(CC2)c2ccc(C(=O)C(C)(C)C)n2CCN3C)cc1C(F)(F)F` [Compound 617]: at least 5.70.
Next, `CCOc1cc(C(=O)N2CCC3(CC2)NCCn2c(C(F)(F)F)ccc23)ccc1OC` [Compound 618]: below 5.30.
Take `CC(C)Oc1ccc(C(=O)N2CCC3(CC2)c2ccc(C(=O)C(C)(C)C)n2CCN3C)cc1F` [Compound 619]: the pIC50 was at least 5.70.
Consider `CC(C)C(=O)c1ccc2n1CCN(C)C21CCN(C(=O)c2ccc(O)c(Cl)c2)CC1` [Compound 620], for which the pIC50 was 5.30 to 5.70.
`Cc1cc(C(=O)N2CCC3(CC2)c2ccc(C(=O)C(F)(F)F)n2CCN3C)ccc1-c1cnc(N(C)C)nc1` [Compound 621]: the pIC50 was at least 5.70.
With `COc1cc(C(=O)N2CCC3(CC2)c2ccc(C(=O)N4CCC(C(C)C)CC4)n2CCN3C)ccc1OC(C)C` [Compound 622], the pIC50 is 5.30 to 5.70.
Next, `CC(=O)c1ccc2n1CCN(C)C21CCN(C(=O)c2ccc(COCCC(F)(F)F)cc2)CC1` [Compound 623]: at least 5.70; `COc1ccc(C(=O)N2CCC3(CC2)c2ccc(Cl)n2CCN3C)cc1C(F)(F)F` [Compound 624]: 5.30 to 5.70; `CN1CCn2c(Cl)ccc2C12CCN(C(=O)c1ccc(C(C)(C)C)cc1)CC2` [Compound 625]: below 5.30.
Next, `CN1CCn2c(Cl)ccc2C12CCN(C(=O)c1ccc(C3CCCCC3)cc1)CC2` [Compound 626]: at least 5.70.
